From patent publication US20190262469A1 (priority 2015, published 2019)
Converted amounts (≈) assume the structure as drawn. Where no end group is shown, it is not given here.

Experiments:
E. coli ER2420/pACYC177 = assay: microbe, parasite or virus in culture; assay type: cell-based; conditions: Escherichia coli, test array/20-well test strips (FIG. 34, 35)
[1] = system: E. coli ER2420 with pACYC177 or pACYC184; assay type: cell-based
alphaviruses = conditions: cited from earlier work
[2] = in vivo; cited from earlier work
[3] = buffer; cited from earlier work
[4] = molecular target: T1, human ephrin B2 (EB2) expressed on cells (CHO-K1 transfected to express ephrin B2) (human, UniProt P52799 28-333); assay: fluorescence of labelled DOPC protocells modified with the ligand on ephrin B2-expressing cells, against unmodified DOPC protocells (FIGS. 3A-B)
T1 construct: whole, on cells; Cellular receptor for Nipah and Hendra viruses; also called CHO-K1/EB2; CHO-K1/ephrin B2
T1 sequence (P52799 28-333): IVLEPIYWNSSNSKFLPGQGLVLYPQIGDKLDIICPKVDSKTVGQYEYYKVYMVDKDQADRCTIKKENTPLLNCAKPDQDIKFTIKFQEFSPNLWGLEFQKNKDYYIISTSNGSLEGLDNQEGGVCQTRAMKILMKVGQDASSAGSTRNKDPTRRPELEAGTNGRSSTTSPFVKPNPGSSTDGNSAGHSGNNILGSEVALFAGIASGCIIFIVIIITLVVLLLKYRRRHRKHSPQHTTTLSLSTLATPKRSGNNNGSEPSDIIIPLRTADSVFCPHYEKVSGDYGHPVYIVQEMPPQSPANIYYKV

Molecule | MIC (E. coli ER2420/pACYC177) [µg/mL] | killing action detected by delta-Ct for PMA treatment [1] | other results
O=C(O)c1cn(C2CC2)c2cc(N3CCNCC3)c(F)cc2c1=O [ciprofloxacin] | < 0.031 | rapidly bactericidal to both E. coli at low concentrations | –
NC(=O)c1ncn([C@@H]2O[C@H](CO)[C@@H](O)[C@H]2O)n1 [Ribavirin] | – | – | IC50 values for several alphaviruses (alphaviruses): low micromolar range; circulation half-life [2]: < 48 h
O=C(O)[C@H]1/C(=C/CO)O[C@@H]2CC(=O)N21 [clavulanic acid] | – | – | half-life in aqueous media/solution [3]: a few hours
NC[C@H]1O[C@H](O[C@H]2[C@H](O)[C@@H](O[C@H]3O[C@H](CO)[C@@H](O)[C@H](N)[C@H]3O)[C@H](N)C[C@@H]2N)[C@H](O)[C@@H](O)[C@@H]1O [kanamycin] | > 256 | – | –
CO[C@H]1/C=C/O[C@@]2(C)Oc3c(C)c(O)c4c(O)c(c(/C=N/N5CCN(C)CC5)c(O)c4c3C2=O)NC(=O)/C(C)=C\C=C\[C@H](C)[C@H](O)[C@@H](C)[C@@H](O)[C@@H](C)[C@H](OC(C)=O)[C@@H]1C [rifampicin] | 8 (≈ 9.72 µM) | – | –
CC1(C)S[C@@H]2[C@H](NC(=O)[C@H](N)c3ccc(O)cc3)C(=O)N2[C@H]1C(=O)O [amoxicillin] | > 128 | in the susceptible strain (pACYC184) and not in the resistant strain (pACYC177) | half-life in aqueous media/solution [3]: on the order of a few hours
CO/N=C(\C(=O)N[C@@H]1C(=O)N2C(C(=O)O)=C(COC(C)=O)CS[C@H]12)c1csc(N)n1 [cefotaxime] | – | in both strains | –
TGAILHP (also: conjugated to protocell lipid bilayer, linker not described, also called ephrin B2-targeting peptide; targeting peptide) | – | – | fold increase in selective binding and internalization [4]: 100 fold
